26 molecules from US4772633A, “6-pyridyl- and 6-phenyl-3-phenyl-1-hexenes and -1-hexynes, composition containing them, and insecticidal and acaricidal method of using them” (Sumitomo Chemical Company, Limited, priority 1986, dated 1988) can be followed below.

Where only a bound is given, the exact number is not on record here.

The assay deals with common mosquito (Culex pipiens pallens). The experiment in a line: Test Example 1: mortality of larvae and inhibition of emergence of common mosquito. As to conditions: for Inhibitory ratio of emergence: 3.5 ppm, counted when all mosquitoes of no treatment group had emerged; for mortality at 3.5 ppm: Culex pipiens, 24 h, last instar larvae, after one day. In kind it is in vivo. The protocol:
The emulsifiable concentrates of the following present compounds obtained according to Formulation example 2 were each diluted with water so as to obtain respective aqueous solutions containing 3.5 ppm of said compounds, respectively. One hundred ml of thus diluted aqueous solutions were poured into respective polyethylene cups of 180 ml volume, and 20 of the last instar larvae of common mosquito (Culex pipiens pallens) were liberated thereto. After one day, the dead or alive of the larvae were examined. Thereafter, the feed was added to respective cups and the number of emerged mosquitoes of the respective cups was counted when all the mosquitoes of no treatment group had […] to calculate the inhibitory ratios of the emergence. The mortality and the inhibitory ratio of the emergence are shown according to the following three criteria: mortality: A; 90% or more, […] inhibitory: A; 90% or more, ratio of emergence B; less than 90% to 80% C; less than 80%.

Consider `C#CC(C)(CCCc1cccc(Oc2ccccc2)c1)c1ccc(OC)cc1` (stereo not shown) [(24), 3-(4-Methoxyphenyl)-3-methyl-6-(3-phenoxyphenyl)-1-hexyne], for which the “Inhibitory ratio of emergence” value is listed as “A (90% or more)” and the mortality (as a rule, the percentage killed) at 3.5 ppm lay in the range of 10 to 90%.

Take `C#CC(C)(CCCc1ccc(F)c(Cc2ccccc2)c1)c1ccc(OCC)cc1` (stereo not shown) [(30), 3-(4-Ethoxyphenyl)-3-methyl-6-(3-benzyl-4-fluorophenyl)-1-hexyne]: the “Inhibitory ratio of emergence” value is “A (90% or more)” and the mortality at 3.5 ppm is above 90%.

`C#CC(C)(CCCc1ccc(F)c(Oc2ccc(C)cc2)c1)c1ccc(OCC)cc1` (stereo not shown) [(33), 3-(4-Ethoxyphenyl)-3-methyl-6-{3-(4-methylphenoxy)-4-fluorophenyl}-1-hexyne]: the “Inhibitory ratio of emergence” value is reported as “A (90% or more)” and the mortality at 3.5 ppm was above 90%.

As to `C#CC(C)(CCCc1cccc(Sc2ccccc2)c1)c1ccc(OCC)cc1` (stereo not shown) [(22), 3-(4-Ethoxyphenyl)-3-methyl-6-(3-phenylthiophenyl)-1-hexyne], the “Inhibitory ratio of emergence” value is on record as “A (90% or more)” and the mortality at 3.5 ppm lay within 10 to 90%.

For the molecule `C#CC(CC)(CCCc1cccc(Oc2ccccc2)c1)c1ccc(Cl)cc1` (stereo not shown) [(26), 3-(4-Chlorophenyl)-3-ethyl-6-(3-phenoxyphenyl)-1-hexyne], the “Inhibitory ratio of emergence” value was “A (90% or more)” and the mortality at 3.5 ppm is above 90%.

For the molecule `C#CC(C)(CCCc1ccc(F)c(Oc2ccc(Cl)cc2)c1)c1ccc(OCC)cc1` (stereo not shown) [(34), 3-(4-Ethoxyphenyl)-3-methyl-6-{3-(4-chlorophenoxy)-4-fluorophenyl}-1-hexyne], the “Inhibitory ratio of emergence” value is “A (90% or more)” and the mortality at 3.5 ppm was above 90%.

`C#CC(C)(CCCc1ccc(F)c(Oc2ccccc2)c1)c1ccc(OC)cc1` (stereo not shown) [(5), 3-(4-Methoxyphenyl)-3-methyl-6-(3-phenoxy-4-fluorophenyl)-1-hexyne]: the “Inhibitory ratio of emergence” value is “A (90% or more)” and the mortality at 3.5 ppm is above 90%.

With `C#CC(C)(CCCc1ccc(F)c(Oc2ccc(F)cc2)c1)c1ccc(OCC)cc1` (stereo not shown) [(38), 3-(4-Ethoxyphenyl)-3-methyl-6-{3-(4-fluorophenoxy)-4-fluorophenyl}-1-hexyne], the “Inhibitory ratio of emergence” value is given as “A (90% or more)” and the mortality at 3.5 ppm is above 90%.

Regarding `C#CC(CC)(CCCc1ccc(F)c(Oc2ccccc2)c1)c1ccc(OCC)cc1` (stereo not shown) [(29), 3-(4-Ethoxyphenyl)-3-ethyl-6-(3-phenoxy-4-fluorophenyl)-1-hexyne], the “Inhibitory ratio of emergence” value was “A (90% or more)” and the mortality at 3.5 ppm is above 90%.

Turning to `C#CC(CC)(CCCc1cccc(Oc2ccccc2)c1)c1ccc(OCC)cc1` (stereo not shown) [(32), 3-(4-Ethoxyphenyl)-3-ethyl-6-(3-phenoxyphenyl)-1-hexyne], the “Inhibitory ratio of emergence” value is “A (90% or more)” and the mortality at 3.5 ppm is above 90%.

`C#CC(CC)(CCCc1ccc(F)c(Oc2ccccc2)c1)c1ccc(Cl)cc1` (stereo not shown) [(41), 3-(4-Chlorophenyl)-3-ethyl-6-(3-phenoxy-4-fluorophenyl)-1-hexyne]: the “Inhibitory ratio of emergence” value is “A (90% or more)” and the mortality at 3.5 ppm was above 90%.

For `C#CC(C)(CCCc1cccc(Oc2ccccc2)c1)c1ccc(F)cc1` (stereo not shown) [(35), 3-(4-Fluorophenyl)-3-methyl-6-(3-phenoxyphenyl)-1-hexyne], the “Inhibitory ratio of emergence” value is recorded as “A (90% or more)” and the mortality at 3.5 ppm was above 90%.

As for `C#CC(C)(CCCc1ccc(F)c(Oc2ccccc2)c1)c1ccc(F)cc1` (stereo not shown) [(9), 3-(4-Fluorophenyl)-3-methyl-6-(3-phenoxy-4-fluorophenyl)-1-hexyne], the “Inhibitory ratio of emergence” value is “A (90% or more)” and the mortality at 3.5 ppm was above 90%.

`C#CC(CCCC)(CCCc1ccc(F)c(Oc2ccccc2)c1)c1ccc(OCC)cc1` (stereo not shown) [(42), 3-(4-Ethoxyphenyl)-3-n-butyl-6-(3-phenoxy-4-fluorophenyl)-1-hexyne]: the “Inhibitory ratio of emergence” value is on record as “A (90% or more)” and the mortality at 3.5 ppm lay within 10 to 90%.

Consider `C#CC(C)(CCCc1ccc(F)c(Oc2ccccc2)c1)c1ccc(OCC=C)c(Cl)c1` (stereo not shown) [(40)], for which the “Inhibitory ratio of emergence” value is given as “A (90% or more)” and the mortality at 3.5 ppm was 10 to 90%.

Turning to `C#CC(C)(CCCc1ccc(F)c(Oc2ccccc2)c1)c1ccc(Cl)c(Cl)c1` (stereo not shown) [(36), 3-(3,4-Dichlorophenyl)-3-methyl-6-(3-phenoxy-4-fluorophenyl)-1-hexyne], the “Inhibitory ratio of emergence” value is recorded as “A (90% or more)” and the mortality at 3.5 ppm is 10 to 90%.

Consider `C#CC(C)(CCCc1ccc(F)c(Nc2ccccc2)c1)c1ccc(OCC)cc1` (stereo not shown) [(21), 3-(4-Ethoxyphenyl)-3-methyl-6-(3-anilino-4-fluorophenyl)-1-hexyne], for which the “Inhibitory ratio of emergence” value was “A (90% or more)” and the mortality at 3.5 ppm is above 90%.

For the molecule `C=CC(C)(CCCc1cccc(Oc2ccccc2)n1)c1ccc(OCC)cc1` (stereo not shown) [(19), 3-(4-Ethoxyphenyl)-3-methyl-6-(6-phenoxypyridin-2-yl)-1-hexene], the “Inhibitory ratio of emergence” value is “A (90% or more)” and the mortality at 3.5 ppm was 10 to 90%.

`C#CC(C)(CCCc1cccc(Oc2ccccc2)n1)c1ccc(OC)cc1` (stereo not shown) [(44), 3-(4-methoxyphenyl)-3-methyl-6-(6-phenoxypyridin-2-yl)-1-hexyne]: the “Inhibitory ratio of emergence” value is “A (90% or more)” and the mortality at 3.5 ppm lay in the range of 10 to 90%.

For the molecule `C#CC(C)(CCCc1ccc(F)c(Oc2ccccc2)c1)c1ccc2c(c1)OCO2` (stereo not shown) [(12), 3-(3,4-Methylenedioxyphenyl)-3-methyl-6-(3-phenoxy-4-fluorophenyl)-1-hexyne], the “Inhibitory ratio of emergence” value was “A (90% or more)” and the mortality at 3.5 ppm was above 90%.

Regarding `C=CC(C)(CCCc1ccc(F)c(Nc2ccccc2)c1)c1ccc(OCC)cc1` (stereo not shown) [(31), 3-(4-Ethoxyphenyl)-3-methyl-6-(3-anilino-4-fluorophenyl)-1-hexene], the “Inhibitory ratio of emergence” value was “A (90% or more)” and the mortality at 3.5 ppm was above 90%.

For `C#CC(C)(CCCc1cccc(Oc2ccccc2)c1)c1ccc2c(c1)OCO2` (stereo not shown) [(14), 3-(3,4-Methylenedioxyphenyl)-3-methyl-6-(3-phenoxyphenyl)-1-hexyne], the “Inhibitory ratio of emergence” value was “A (90% or more)” and the mortality at 3.5 ppm is above 90%.

As for `C#CC(C)(CCCc1cccc(Oc2ccccc2)c1)c1ccc(CC)cc1` (stereo not shown) [(23), 3-(4-Ethylphenyl)-3-methyl-6-(3-phenoxyphenyl)-1-hexyne], the “Inhibitory ratio of emergence” value is reported as “A (90% or more)” and the mortality at 3.5 ppm was above 90%.

`C#CC(CCCc1cccc(Oc2ccccc2)c1)c1ccc(OCC)cc1` (stereo not shown) [(28), 3-(4-Ethoxyphenyl)-6-(3-phenoxyphenyl)-1-hexyne]: the “Inhibitory ratio of emergence” value is recorded as “A (90% or more)” and the mortality at 3.5 ppm is above 90%.

Take `C#CC(C)(CCCc1ccc(F)c(Oc2ccccc2)c1)c1ccc(OC(F)F)c(Cl)c1` (stereo not shown) [(27)]: the “Inhibitory ratio of emergence” value is on record as “A (90% or more)” and the mortality at 3.5 ppm lay within 10 to 90%.

For `C#CC(C)(CCCc1cccc(Oc2ccc(F)cc2)c1)c1ccc(OCC)cc1` (stereo not shown) [(15), 3-(4-Ethoxyphenyl)-3-methyl-6-{3-(4-fluorophenoxy)phenyl}-1-hexyne], the “Inhibitory ratio of emergence” value is listed as “A (90% or more)” and the mortality at 3.5 ppm was above 90%.
